The values that follow come from PubChem BioAssay (NCI).

Some test systems named below: A498 renal; T-47D breast; MDA-MB-231 breast; SNB-19 CNS; OVCAR-5 ovarian; MDA-MB-435; IGROV1 ovarian.
Holding throughout (assay): DTP human tumour cell line panel, 48 h

Where “and” joins values, the source holds several entries; their conditions need not be identical. Identical values can stand only once.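 How tested: cells in 96-well plates exposed to compound for 48 hours at five concentrations. GI50 marks 50% less growth. TGI: total growth inhibition.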

What is called GI50 is the concentration at which growth is held to half of that of the control. In general, TGI refers to the concentration giving total growth inhibition. A higher TGI goes with lower sensitivity of the cells. For `Cc1ccc(CNc2c3ccccc3nc3cc(NC(=O)CCN4CCCC4)ccc23)cc1`, the GI50 was 1.13 µM in the assay with A498 renal; 0.751 µM in the assay with T-47D breast; 0.602 µM with MDA-MB-231 breast; 0.624 µM with SNB-19 CNS; 0.793 µM in the assay on OVCAR-5 ovarian; 1.33 µM with MDA-MB-435. In addition, the TGI with A498 renal turned out to be 2.38 µM; in the assay on T-47D breast, 3.02 µM; in the assay on MDA-MB-231 breast, 1.98 µM; in the assay with SNB-19 CNS, 1.92 µM; with OVCAR-5 ovarian, 2.1 µM; with MDA-MB-435, 2.62 µM.
Take `CCCOC(=O)N1CCN(/[N+]([O-])=N/Oc2ccc([N+](=O)[O-])cc2[N+](=O)[O-])CC1`: the GI50 in the assay with IGROV1 ovarian is 1.3 µM; in the assay on MDA-MB-231 breast, 2.29 µM; with SNB-19 CNS, 5.08 µM; in the assay with OVCAR-5 ovarian it was 3.43 µM; in the assay on MDA-MB-435 it was 0.366 µM. Moreover, the TGI in the assay on IGROV1 ovarian was 4.05 µM; with MDA-MB-231 breast, 4.83 µM; in the assay on SNB-19 CNS it was 18.7 µM; in the assay with OVCAR-5 ovarian it was 12.7 µM; in the assay with MDA-MB-435 it was 12.2 µM.
In the case of `CCN(CC)Cc1ccc(Nc2nccc(-c3cnn4ncccc34)n2)cc1`, the GI50 was 0.0144 µM in the assay on A498 renal; 0.0542 µM with T-47D breast; 0.0275 µM in the assay with IGROV1 ovarian; 0.0226 µM in the assay on MDA-MB-231 breast; 0.0296 µM with SNB-19 CNS; 0.0209 µM in the assay on OVCAR-5 ovarian. In the assay with MDA-MB-435, the GI50 is 0.0232 µM. Also, the TGI is 0.0452 µM with A498 renal; 6.6 µM with T-47D breast; greater than 20.8 µM in the assay on IGROV1 ovarian; greater than 25 µM with MDA-MB-231 breast; greater than 25 µM in the assay on SNB-19 CNS; greater than 25 µM in the assay with OVCAR-5 ovarian. This molecule also displayed a TGI in the assay on MDA-MB-435 of 0.0945 µM.
Turning to `C/C=C(\C)C(=O)O[C@H]1C=CC(=O)O[C@@H]1CC[C@H](O)[C@H](C)O`, the GI50 is greater than 100 µM in the assay with A498 renal; 38.6 µM in the assay on T-47D breast; 42 µM in the assay with IGROV1 ovarian; 52.2 µM in the assay with MDA-MB-231 breast; 98.9 µM in the assay with SNB-19 CNS; greater than 100 µM in the assay with OVCAR-5 ovarian. Further, the GI50 in the assay on MDA-MB-435 is 34.6 µM. Besides, the TGI is greater than 100 µM with A498 renal; greater than 87.1 µM in the assay on T-47D breast; greater than 100 µM with IGROV1 ovarian; greater than 100 µM in the assay on MDA-MB-231 breast; greater than 100 µM in the assay on SNB-19 CNS; greater than 100 µM in the assay with OVCAR-5 ovarian. For the same molecule, the TGI in the assay on MDA-MB-435 is greater than 100 µM.
For `C[C@]12CC[C@H]3[C@@H](CC[C@]4(O)C[C@@H](O)CC[C@]34/C=N/O)[C@@]1(O)CC[C@@H]2C1=COC(=O)C1`, the total growth inhibition concentration (TGI) is 0.583 µM in the assay with A498 renal; 0.975 µM in the assay on T-47D breast; 2.98 µM in the assay with IGROV1 ovarian; 2.05 µM in the assay with SNB-19 CNS; 0.998 µM with OVCAR-5 ovarian; 0.623 µM in the assay with MDA-MB-435.
Turning to `COC(=O)c1cc2ccc(OC(C)=O)c(OC(C)=O)c2cn1`, the TGI in the assay on A498 renal is 48.7 µM; in the assay with IGROV1 ovarian, 33.9 µM; in the assay with MDA-MB-231 breast it was 7.12 µM and 42.9 µM; in the assay with OVCAR-5 ovarian, 34.2 µM; in the assay on MDA-MB-435 it was 3.16 µM and 3.26 µM. Further, in the assay on MDA-MB-231 breast, the GI50 is 17.7 µM.
`CN(C)c1ccc2nc3ccc(=[N+](C)C)cc-3sc2c1`: the GI50 in the assay with A498 renal was 4.12 µM and 6.21 µM; with T-47D breast, 0.36 µM and 0.558 µM; in the assay on IGROV1 ovarian, 1.18 µM and 2.03 µM; with MDA-MB-231 breast, 0.512 µM and 1.36 µM; in the assay with SNB-19 CNS, 0.908 µM and 0.543 µM; in the assay with OVCAR-5 ovarian it was 0.599 µM and 0.642 µM. The GI50 with MDA-MB-435 was 0.976 µM and 1.46 µM. In addition, the TGI with A498 renal was 22 µM and 55.8 µM; with T-47D breast it was 3.5 µM and 12.7 µM; in the assay on IGROV1 ovarian, 11.5 µM and 6.47 µM; in the assay with MDA-MB-231 breast, 12.9 µM and 16.9 µM; in the assay with SNB-19 CNS, 16.3 µM and 46.1 µM; with OVCAR-5 ovarian, 11.3 µM and 17.3 µM. Moreover, the TGI with MDA-MB-435 was 3.26 µM and 4.02 µM.
As to `NC(=O)c1c(NC(=O)c2ccc3c(c2)OCO3)sc2c1CCC(=O)C2`, the GI50 was 0.592 µM in the assay with T-47D breast, 2.44 µM with MDA-MB-231 breast, 2.17 µM in the assay with SNB-19 CNS and 3.16 µM in the assay with MDA-MB-435. The TGI was 3.81 µM with T-47D breast, 6.89 µM in the assay with MDA-MB-231 breast, greater than 100 µM in the assay on SNB-19 CNS and greater than 100 µM with MDA-MB-435.
`Cc1ccc(S(=O)(=O)Nc2cccc3[nH]c(C(F)(F)F)nc23)cc1`: the GI50 was 0.262 µM in the assay with A498 renal; 0.492 µM in the assay with T-47D breast; 0.832 µM with IGROV1 ovarian; 1.61 µM in the assay with MDA-MB-231 breast; 0.972 µM in the assay on SNB-19 CNS; 1.85 µM in the assay on OVCAR-5 ovarian. Moreover, the GI50 with MDA-MB-435 was 0.204 µM. Further, the TGI with A498 renal is 1.82 µM; in the assay on T-47D breast, 57 µM; in the assay with IGROV1 ovarian, greater than 100 µM; in the assay with MDA-MB-231 breast, 22.5 µM; with SNB-19 CNS, greater than 100 µM; in the assay with OVCAR-5 ovarian it was greater than 74.1 µM. In addition, in the assay with MDA-MB-435, the TGI is greater than 100 µM.
For the molecule `COc1ccc2c(c1)C(=O)c1c-2c(N(C)C)nc2ccccc12`, the GI50 was greater than 100 µM in the assay on A498 renal; greater than 100 µM with T-47D breast; greater than 100 µM in the assay with IGROV1 ovarian; 77 µM in the assay on MDA-MB-231 breast; greater than 100 µM in the assay on SNB-19 CNS; greater than 100 µM in the assay on OVCAR-5 ovarian. Further, the TGI in the assay with A498 renal, in the assay with T-47D breast, with IGROV1 ovarian, in the assay on MDA-MB-231 breast, with SNB-19 CNS and in the assay on OVCAR-5 ovarian was greater than 100 µM in each case.
With `COc1ccc(C(=O)c2cc3c(N)c(C(=O)Nc4cccc5ccccc45)sc3nc2C)cc1`, the GI50 in the assay with A498 renal was 0.119 µM; with T-47D breast, 0.355 µM; in the assay with IGROV1 ovarian, 0.268 µM; in the assay on MDA-MB-231 breast, 0.271 µM; in the assay on SNB-19 CNS, 0.208 µM; in the assay on OVCAR-5 ovarian, 0.285 µM. The TGI is 0.764 µM in the assay on A498 renal; greater than 50 µM in the assay with T-47D breast; greater than 50 µM in the assay with IGROV1 ovarian; greater than 50 µM in the assay with MDA-MB-231 breast; greater than 50 µM with SNB-19 CNS; greater than 50 µM in the assay with OVCAR-5 ovarian.
As for `O=C1c2ccccc2-c2c1c1ccccc1c(=O)n2CCN1CCOCC1`, the GI50 in the assay with T-47D breast was greater than 100 µM; with IGROV1 ovarian it was 79.4 µM; in the assay with MDA-MB-231 breast it was greater than 100 µM; with SNB-19 CNS it was greater than 100 µM; in the assay with OVCAR-5 ovarian it was greater than 100 µM; with MDA-MB-435, greater than 100 µM. Also, the TGI with T-47D breast, with IGROV1 ovarian, in the assay with MDA-MB-231 breast, in the assay on SNB-19 CNS, in the assay with OVCAR-5 ovarian and in the assay on MDA-MB-435 was greater than 100 µM in each case.
